Test results taken from publication PMC6611227 (Frontiers in Microbiology, 2019).

Molecular target: T1, StDHODH (dihydroorotate dehydrogenase) (Solanum tuberosum, UniProt M1BCR0, I273V/I299V/P120T/P359Q)
T1 construct: gene LOC102578881
T1 sequence (M1BCR0 70-460 P120T/I273V/I299V/P359Q): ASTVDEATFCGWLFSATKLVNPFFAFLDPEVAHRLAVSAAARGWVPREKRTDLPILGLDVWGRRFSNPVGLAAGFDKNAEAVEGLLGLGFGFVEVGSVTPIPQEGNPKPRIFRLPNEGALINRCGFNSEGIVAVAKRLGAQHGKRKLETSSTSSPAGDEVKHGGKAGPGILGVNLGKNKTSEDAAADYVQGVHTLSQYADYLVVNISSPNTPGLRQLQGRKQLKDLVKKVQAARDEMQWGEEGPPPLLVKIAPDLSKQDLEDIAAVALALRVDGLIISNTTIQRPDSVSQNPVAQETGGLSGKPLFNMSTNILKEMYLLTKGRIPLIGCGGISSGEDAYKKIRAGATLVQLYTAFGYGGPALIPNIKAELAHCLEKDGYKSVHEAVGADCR
Test: biochemical
Conditions: read-out: Activity % StDHODH

COc1c(-c2ccccc2)ccc(NC(=O)C(C#N)=C(C)O)c1Cl [compound 19, N-(3-chloro-2-methoxybiphenyl-4-yl)-2-cyano-3-hydroxybut-2-enamide]
activity at 500 µM: 0%
